In ChEMBL document CHEMBL5465560, “Selectivity Literature for EUbOPEN Chemogenomic Library” (2024):
One block for each compound: values may come before it.

What was measured:
[1] = biological target: Tyrosine-protein kinase Fyn (Homo sapiens) (UniProt P06241); test: Selectivity interaction (KinomeScan (DiscoverX)) EUB0000666a FYN; conditions: at 10 µM
[2] = Selectivity interaction (Calcium Channel (L) receptor assay: rat brain ) EUB0000877a CACNA1C
[3] = biological target: Protein kinase C theta type (Homo sapiens, UniProt Q04759); test: Selectivity interaction (KinomeScan (DiscoverX)) EUB0000607a PRKCQ; conditions: at 10 µM
Sequence of Protein kinase C theta type (Q04759 whole entry, looked up): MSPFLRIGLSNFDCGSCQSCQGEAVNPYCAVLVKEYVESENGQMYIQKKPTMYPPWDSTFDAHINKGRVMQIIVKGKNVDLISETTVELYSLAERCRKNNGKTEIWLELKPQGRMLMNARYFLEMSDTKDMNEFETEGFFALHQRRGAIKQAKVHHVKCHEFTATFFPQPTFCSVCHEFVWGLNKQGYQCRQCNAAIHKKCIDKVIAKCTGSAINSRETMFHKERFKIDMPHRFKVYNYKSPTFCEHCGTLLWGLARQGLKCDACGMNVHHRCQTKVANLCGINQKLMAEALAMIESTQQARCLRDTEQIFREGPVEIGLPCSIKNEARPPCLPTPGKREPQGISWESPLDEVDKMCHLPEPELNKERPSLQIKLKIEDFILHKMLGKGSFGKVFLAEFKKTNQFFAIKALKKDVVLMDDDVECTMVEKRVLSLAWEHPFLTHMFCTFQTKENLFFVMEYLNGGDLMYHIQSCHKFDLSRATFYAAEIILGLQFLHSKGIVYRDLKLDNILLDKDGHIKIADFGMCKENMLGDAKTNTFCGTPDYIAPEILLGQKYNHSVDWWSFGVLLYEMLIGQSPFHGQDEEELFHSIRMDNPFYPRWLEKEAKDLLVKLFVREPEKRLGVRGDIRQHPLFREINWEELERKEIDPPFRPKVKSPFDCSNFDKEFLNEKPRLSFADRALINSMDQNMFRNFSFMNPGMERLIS

[4] = biological target: T1, Megakaryocyte-associated tyrosine-protein kinase (Homo sapiens) (UniProt P42679); test: Selectivity interaction (Ambit KINOMEscan and KiNATiv profiling in Jurkat cells) EUB0000090b MATK; format: cell-based; conditions: at 1 µM
T1 sequence (whole entry): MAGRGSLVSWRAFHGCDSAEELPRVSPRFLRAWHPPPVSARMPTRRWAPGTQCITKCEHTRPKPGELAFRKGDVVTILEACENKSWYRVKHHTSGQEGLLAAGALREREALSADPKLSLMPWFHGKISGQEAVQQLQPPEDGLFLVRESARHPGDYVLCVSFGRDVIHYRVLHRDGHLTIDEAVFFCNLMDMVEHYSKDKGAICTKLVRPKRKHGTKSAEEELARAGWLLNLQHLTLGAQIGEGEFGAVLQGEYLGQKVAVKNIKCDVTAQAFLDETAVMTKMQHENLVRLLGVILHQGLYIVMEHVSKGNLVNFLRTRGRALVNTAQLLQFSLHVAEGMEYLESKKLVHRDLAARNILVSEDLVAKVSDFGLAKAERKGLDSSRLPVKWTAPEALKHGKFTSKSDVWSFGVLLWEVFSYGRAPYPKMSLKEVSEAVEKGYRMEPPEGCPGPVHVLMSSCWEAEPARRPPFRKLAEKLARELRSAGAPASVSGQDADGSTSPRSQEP

[5] = biological target: Mitotic checkpoint serine/threonine-protein kinase BUB1 (Homo sapiens, UniProt O43683); test: Selectivity interaction (KinomeScan (DiscoverX)) EUB0001079a BUB1; conditions: at 1 µM
Sequence of Mitotic checkpoint serine/threonine-protein kinase BUB1 (O43683 whole entry, looked up): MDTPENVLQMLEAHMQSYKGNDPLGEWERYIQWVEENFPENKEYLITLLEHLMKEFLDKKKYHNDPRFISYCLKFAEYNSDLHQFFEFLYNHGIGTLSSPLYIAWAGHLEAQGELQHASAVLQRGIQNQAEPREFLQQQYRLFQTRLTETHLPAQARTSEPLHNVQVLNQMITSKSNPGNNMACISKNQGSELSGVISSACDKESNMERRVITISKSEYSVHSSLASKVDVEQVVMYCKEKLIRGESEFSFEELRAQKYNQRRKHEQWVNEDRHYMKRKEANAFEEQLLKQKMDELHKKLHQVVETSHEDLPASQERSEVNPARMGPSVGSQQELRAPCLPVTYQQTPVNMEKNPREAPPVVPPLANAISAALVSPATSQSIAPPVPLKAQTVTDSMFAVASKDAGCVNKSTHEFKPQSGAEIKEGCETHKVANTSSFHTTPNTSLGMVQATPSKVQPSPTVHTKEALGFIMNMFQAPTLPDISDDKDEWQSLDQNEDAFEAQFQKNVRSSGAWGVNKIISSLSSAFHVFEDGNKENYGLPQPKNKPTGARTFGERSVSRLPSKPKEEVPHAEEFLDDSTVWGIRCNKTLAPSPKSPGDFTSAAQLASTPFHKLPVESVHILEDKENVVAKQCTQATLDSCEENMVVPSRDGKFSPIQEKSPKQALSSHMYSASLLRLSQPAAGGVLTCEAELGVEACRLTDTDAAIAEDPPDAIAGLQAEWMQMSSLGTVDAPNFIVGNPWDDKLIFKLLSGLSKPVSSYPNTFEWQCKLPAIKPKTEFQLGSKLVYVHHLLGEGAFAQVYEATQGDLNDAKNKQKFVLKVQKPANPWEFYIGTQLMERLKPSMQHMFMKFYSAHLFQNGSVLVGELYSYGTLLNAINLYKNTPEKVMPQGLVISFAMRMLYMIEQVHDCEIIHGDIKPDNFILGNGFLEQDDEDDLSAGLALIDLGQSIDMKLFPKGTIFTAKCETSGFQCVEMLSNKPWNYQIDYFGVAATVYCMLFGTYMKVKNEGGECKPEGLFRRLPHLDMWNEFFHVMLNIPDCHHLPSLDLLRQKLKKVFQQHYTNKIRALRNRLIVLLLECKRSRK

[6] = biological target: T2, Alpha-1B adrenergic receptor (Homo sapiens) (UniProt P35368); test: Selectivity interaction (GPCR panel (PDSP screen)) EUB0001079a ADRA1B; conditions: at 10 µM
T2 sequence (whole entry): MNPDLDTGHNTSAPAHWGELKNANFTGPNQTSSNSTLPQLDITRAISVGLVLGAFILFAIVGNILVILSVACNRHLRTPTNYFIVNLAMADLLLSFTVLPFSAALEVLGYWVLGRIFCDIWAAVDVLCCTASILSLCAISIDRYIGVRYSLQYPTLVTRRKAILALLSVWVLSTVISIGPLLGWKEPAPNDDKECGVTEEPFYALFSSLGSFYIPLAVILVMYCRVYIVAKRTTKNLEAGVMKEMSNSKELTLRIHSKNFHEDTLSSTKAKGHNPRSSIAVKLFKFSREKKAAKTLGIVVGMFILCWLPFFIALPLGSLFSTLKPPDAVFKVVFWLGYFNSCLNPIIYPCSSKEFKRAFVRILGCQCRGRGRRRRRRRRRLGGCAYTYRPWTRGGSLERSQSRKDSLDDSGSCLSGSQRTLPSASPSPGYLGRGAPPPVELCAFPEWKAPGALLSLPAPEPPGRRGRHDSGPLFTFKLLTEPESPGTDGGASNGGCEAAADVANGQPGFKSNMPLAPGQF

[7] = biological target: Protein arginine N-methyltransferase 6 (Homo sapiens, UniProt Q96LA8); test: Selectivity interaction (Transferase panel (protein, RNA, and DNA methyltransferases. and EP300 (acetyltransferase))) EUB0000270b PRMT6
Sequence of Protein arginine N-methyltransferase 6 (Q96LA8 whole entry, looked up): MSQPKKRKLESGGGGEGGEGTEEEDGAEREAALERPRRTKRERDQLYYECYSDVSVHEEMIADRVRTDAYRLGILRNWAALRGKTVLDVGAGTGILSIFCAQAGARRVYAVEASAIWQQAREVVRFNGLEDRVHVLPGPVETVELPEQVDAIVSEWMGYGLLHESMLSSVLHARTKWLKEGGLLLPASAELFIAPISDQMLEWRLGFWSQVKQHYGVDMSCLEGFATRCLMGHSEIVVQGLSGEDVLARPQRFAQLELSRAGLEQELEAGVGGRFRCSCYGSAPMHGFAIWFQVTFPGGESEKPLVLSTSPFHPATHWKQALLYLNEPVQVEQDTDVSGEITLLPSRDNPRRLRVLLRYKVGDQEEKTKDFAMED

[8] = biological target: Serine/threonine-protein kinase SIK1 (Homo sapiens) (UniProt P57059); test: Selectivity interaction (KinomeScan (DiscoverX)) EUB0000229b SIK1; conditions: at 10 µM
Sequence of Serine/threonine-protein kinase SIK1 (Homo sapiens) (P57059 whole entry): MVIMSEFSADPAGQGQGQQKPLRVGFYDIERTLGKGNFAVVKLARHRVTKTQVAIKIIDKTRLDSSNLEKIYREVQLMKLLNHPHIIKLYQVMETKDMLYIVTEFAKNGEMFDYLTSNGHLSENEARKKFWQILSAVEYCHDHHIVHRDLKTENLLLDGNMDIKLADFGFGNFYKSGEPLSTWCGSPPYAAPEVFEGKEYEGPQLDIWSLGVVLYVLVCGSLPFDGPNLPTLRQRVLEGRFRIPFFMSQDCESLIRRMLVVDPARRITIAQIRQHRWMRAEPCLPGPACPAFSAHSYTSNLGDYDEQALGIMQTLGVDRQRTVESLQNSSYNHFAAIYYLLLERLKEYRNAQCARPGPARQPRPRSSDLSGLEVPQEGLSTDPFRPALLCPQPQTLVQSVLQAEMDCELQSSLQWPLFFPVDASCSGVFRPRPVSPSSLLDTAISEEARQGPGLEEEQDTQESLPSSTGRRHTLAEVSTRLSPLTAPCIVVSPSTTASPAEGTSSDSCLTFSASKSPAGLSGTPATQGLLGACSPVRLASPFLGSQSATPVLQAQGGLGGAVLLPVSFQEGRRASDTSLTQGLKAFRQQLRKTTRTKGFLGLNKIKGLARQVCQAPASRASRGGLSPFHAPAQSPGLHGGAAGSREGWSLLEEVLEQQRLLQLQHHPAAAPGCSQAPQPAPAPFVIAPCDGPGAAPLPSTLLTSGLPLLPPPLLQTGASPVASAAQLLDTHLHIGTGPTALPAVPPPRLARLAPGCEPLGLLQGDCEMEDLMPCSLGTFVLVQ

[9] = biological target: T3, Hormonally up-regulated neu tumor-associated kinase (Homo sapiens) (UniProt P57058); test: Selectivity interaction (KinomeScan (DiscoverX)) EUB0000229b HUNK; conditions: at 10 µM
T3 sequence (whole entry): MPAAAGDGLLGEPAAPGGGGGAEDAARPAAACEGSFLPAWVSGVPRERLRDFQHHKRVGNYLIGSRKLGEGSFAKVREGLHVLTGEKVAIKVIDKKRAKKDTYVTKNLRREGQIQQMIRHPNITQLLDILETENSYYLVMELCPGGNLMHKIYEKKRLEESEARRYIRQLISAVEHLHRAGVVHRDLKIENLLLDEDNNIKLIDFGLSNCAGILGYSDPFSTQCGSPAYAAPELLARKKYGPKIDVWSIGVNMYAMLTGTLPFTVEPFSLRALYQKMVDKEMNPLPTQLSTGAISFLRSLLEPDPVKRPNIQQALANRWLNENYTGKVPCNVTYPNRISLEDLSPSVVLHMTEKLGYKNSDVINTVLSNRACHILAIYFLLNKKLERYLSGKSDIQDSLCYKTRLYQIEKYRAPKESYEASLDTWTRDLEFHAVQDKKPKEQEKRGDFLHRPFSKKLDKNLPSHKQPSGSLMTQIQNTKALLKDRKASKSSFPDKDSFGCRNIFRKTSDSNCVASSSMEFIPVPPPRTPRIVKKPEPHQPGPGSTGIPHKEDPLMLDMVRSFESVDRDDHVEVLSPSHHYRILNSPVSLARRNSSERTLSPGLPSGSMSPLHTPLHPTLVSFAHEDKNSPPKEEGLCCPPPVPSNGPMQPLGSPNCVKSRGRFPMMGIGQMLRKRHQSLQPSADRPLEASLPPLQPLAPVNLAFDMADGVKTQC

[10] = biological target: Serine/threonine-protein kinase PLK1 (Homo sapiens, UniProt P53350); test: Selectivity interaction (KinomeScan (DiscoverX)) EUB0000618a PLK1; conditions: at 10 µM
Sequence of Serine/threonine-protein kinase PLK1 (P53350 whole entry): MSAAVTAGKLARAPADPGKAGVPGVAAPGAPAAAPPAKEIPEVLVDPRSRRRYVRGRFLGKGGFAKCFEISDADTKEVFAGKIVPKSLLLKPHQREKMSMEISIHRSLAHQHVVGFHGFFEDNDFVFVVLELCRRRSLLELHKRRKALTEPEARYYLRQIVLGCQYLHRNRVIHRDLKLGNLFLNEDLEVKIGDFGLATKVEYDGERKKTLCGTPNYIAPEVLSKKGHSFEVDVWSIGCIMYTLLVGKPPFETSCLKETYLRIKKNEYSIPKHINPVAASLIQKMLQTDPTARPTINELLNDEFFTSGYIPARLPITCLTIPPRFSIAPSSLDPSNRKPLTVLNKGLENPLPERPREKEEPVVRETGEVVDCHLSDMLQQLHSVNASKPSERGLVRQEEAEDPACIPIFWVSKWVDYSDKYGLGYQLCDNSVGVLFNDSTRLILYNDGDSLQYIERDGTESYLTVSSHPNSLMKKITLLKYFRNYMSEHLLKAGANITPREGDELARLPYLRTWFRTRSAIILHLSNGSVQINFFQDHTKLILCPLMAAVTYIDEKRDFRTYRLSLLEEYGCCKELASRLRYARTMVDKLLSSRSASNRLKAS

Sequence of Tyrosine-protein kinase Fyn (Homo sapiens) (P06241 2-537 limits assumed): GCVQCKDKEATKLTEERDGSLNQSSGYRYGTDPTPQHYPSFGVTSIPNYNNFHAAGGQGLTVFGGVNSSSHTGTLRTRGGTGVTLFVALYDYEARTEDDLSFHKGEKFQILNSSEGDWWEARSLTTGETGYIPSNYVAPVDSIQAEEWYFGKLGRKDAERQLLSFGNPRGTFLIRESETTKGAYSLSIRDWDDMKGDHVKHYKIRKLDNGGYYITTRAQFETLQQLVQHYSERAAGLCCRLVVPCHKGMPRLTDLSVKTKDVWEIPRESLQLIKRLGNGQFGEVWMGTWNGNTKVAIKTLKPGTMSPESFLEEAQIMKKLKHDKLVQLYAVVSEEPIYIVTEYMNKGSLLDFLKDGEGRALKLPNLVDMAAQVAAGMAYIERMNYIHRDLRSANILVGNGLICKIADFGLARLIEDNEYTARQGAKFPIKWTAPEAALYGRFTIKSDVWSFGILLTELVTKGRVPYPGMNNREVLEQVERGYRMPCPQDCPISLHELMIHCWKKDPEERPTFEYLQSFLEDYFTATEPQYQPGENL

SMILES: O=C(NOC[C@H](O)CO)c1ccc(F)c(F)c1Nc1ccc(I)cc1F
% of control [1]: 64%

IC50 [2]: > 30 µM
SMILES: CCC(=O)N1CC[C@H](Nc2ncnc3c2CN(c2cnc(OC)c(C(F)(F)F)c2)CC3)C1 [LENIOLISIB]

SMILES: CNC(=O)Nc1ccc(-c2nc(N3CC4CCC(C3)O4)c3cnn(C4CCC5(CC4)OCCO5)c3n2)cc1
% of control [3]: 100%

SMILES: CN(C)C/C=C/C(=O)Nc1ccc(C(=O)N2CCCC(Nc3ncc(Cl)c(-c4c[nH]c5ccccc45)n3)C2)cc1 (stereo unspecified)
% of control [4]: 94%

SMILES: Nc1cnc(N2CCc3cc(S(=O)(=O)Nc4c(F)cc(Cl)cc4F)cc(N4CCCC4=O)c32)nc1 [TP-020n]
% of control [5]: 100% | % of inhibition [6]: 4.68%

% activity ([7]; at 1 µM): > 90% | % activity ([7]; at 10 µM): > 80%
SMILES: Cc1cc(CN)cc(C)c1-c1ncn(C)c1-c1cncn1C

SMILES: COc1cc(N(C)c2ccnc3ccc(C(F)(F)F)cc23)cc(OC)c1OC
% binding [8]: 96% | % binding [9]: 93%

SMILES: O[C@H]1CC[C@H](Nc2ncc3nc(Nc4c(F)cc(F)cc4F)n([C@H]4CCOC4)c3n2)CC1
% of control [10]: 100%
